From US20210113563A1, “4-(4-CYANO-2-THIOARYL)DIHYDROPYRIMIDINONES FOR TREATING CHRONIC WOUNDS” (pH Pharma Co., Ltd., priority 2015, published 2021)
Entries after “also recorded” stand apart in the source; their conditions may differ.

Assays:
[1] = system: wounds of Tight Skin mice (TSK); assay: Reepithelialization and visual healing of full thickness skin excision wounds in Tight Skin mice (TSK); assay type: in vivo; conditions: TSK mouse; for Wound closure (reepithelialization) in % of initial epidermal gap: d 12, CK16 staining
From the text: OBJECTIVE: To evaluate wound closure/reepithelialization promoting effects of the Neutrophil Elastase Inhibitor Example 3 in a fibrosis-related model of delayed wound healing (Tight Skin Mouse, TSK). METHODS: Animals: mice, male+female, strain: B6.Cg-FBN1<Tsk>−/− (wt) and +/−(het), age: 5 weeks upon delivery, breeder: Bayer. Food (ssniff R/M-H) and water was provided ad libitum. Experimental procedure: Mice were randomized at day 0. At day 0, 3 full thickness excision wounds were induced. For that, animals were anesthetized (Rompun/Ketavet/NaCl 0.9% [1+3+16]) in […]. The lower back was shaved, then moistened with tap water. Pilca depilation cream was applied and left for 3-5 minutes to act, then wiped off. To prevent the animals from cooling down during the procedure, they were placed on warming mats. Skin was excised using 6 mm diameter round scalpels. After wake up mice were distributed to individual cages. Treatment: Day 0 to 11 twice daily per os. Example 3 was dissolved in PEG400 as a vehicle. Administration was twice daily (bid). Skin samples were harvested into formalin (3.7% in PBS) at day 12 after scarifying with isoflurane/O2/N2O anesthesia followed by dislocation of the cervical spine. After soaking in formalin (24-72 h), the samples were transferred to paraffin and then cut. Staining of cytokeratin 16 was performed using rabbit polyclonal anti-Keratin 16 (CK16, KRT16, ABIN265495), 1 mg/ml anti-CK16 antibody by IHC-Peroxidase (in a 1:100 dilution) EnVision+ System-HRP (DAB), for Rabbit Primary Antibodies (Dako #K4011).
Effects were most prominent on d7 and d9. All dosages were similarly effective, i.e. a clear dose response ratio remained to be established. […] Based on the size of the induced wounds, 6000 μm was set as 100%. The epidermal gap, i.e. the distance between the epidermal edges was measured by microscopic histometry. The width of the gap was subtracted from the initial wound. The delta represented the reepithelialized part of the wound and was expressed as reepithelialization in % of the initial wound diameter, i.e. 100% equaled complete reepithelialization or full wound closure.

[2] = system: HaCaT cells; assay: HaCaT modified scratch assay (Oris Cell Migration Assay) with human neutrophil elastase; assay type: cell-based; conditions: 7.5 μg/mL hNE
Protocol: The modified scratch-wound assay is a simple, reproducible assay commonly used to measure basic cell migration parameters such as speed, persistence, and polarity. Cells are grown to confluence and a thin “wound” is introduced by scratching with a pipette tip. In the modified version, a plastic plug is placed into the tissue well while the cells adhere and grow to confluence. When the plug is pulled, a circular “wound” emerges. Cells at the wound edge polarise and migrate into the wound space. […] At the given time points, the size of the free area is measured.
Method: Oris Cell Migration Assay (collagen I coated) with HaCaT cells. Establishing a dose response curve for test compounds with and without addition of 7.5 μg/mL human neutrophil elastase (hNE).
For harvesting the cells, the medium was first extracted from the cell culture flask, then washed with PBS and 10-20 ml aspirated again. 2.5 ml (75 cm^2 flask bottom area) or 5 ml (162 cm^2) TrypLE Express were added, as well as the same amount of PBS followed by incubating the cells for 10 minutes (37° C.). The cells were transferred into a tube, centrifuged (250×g, 10 min, RT=room temperature) and resuspended in medium.
The following cell concentration was used: 7×10^5 cells/ml=7×10^4 cells/well/100 μl.
In this time, the cells adhered and grew to confluence. The compounds were then added to achieve the below indicated concentrations. The plugs were then removed.
Once all components were pipetted to the cells, one photo per well was taken including the “wound” (0 h). A Zeiss AxioObserver (5× lens, bright field, 5.5 V light exposure 2.2 ms) and the AxioVision software was used. […] 16 h later pictures were taken again.
The relative healing was calculated, i.e. the percentage of closed wound area compared to baseline at 0 h.
Wound healing %=100−(‘wound surface after x hours’*100/‘wound surface after 0 hours’)
From the calculated relative wound healing a graphic in GrapPad prism was created, and EC50 values were determined.
For evaluation of pictures the software ImageJ was used. For this, the ZVI files were exported within the AxioVision software as jpg. This jpg files were then opened by ImageJ. Using the Tools panel (Mode: 4-connected/Tolerance=5-20) the to be measured surface area was marked.

[3] = target: T1, human neutrophil elastase (HNE) (Homo sapiens, UniProt P08246); conditions: read-out: Inhibition of human neutrophil elastase (HNE) IC50; cited from earlier work
T1 sequence (P08246 30-267): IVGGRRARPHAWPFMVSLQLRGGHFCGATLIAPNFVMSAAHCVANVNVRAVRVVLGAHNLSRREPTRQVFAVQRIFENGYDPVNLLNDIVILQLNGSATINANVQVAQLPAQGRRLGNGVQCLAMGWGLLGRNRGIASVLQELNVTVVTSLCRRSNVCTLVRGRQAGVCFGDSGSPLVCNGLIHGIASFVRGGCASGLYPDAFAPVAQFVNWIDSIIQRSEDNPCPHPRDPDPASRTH

## CC1=C(C#N)[C@@H](c2ccc(C#N)cc2S(C)(=O)=O)N(S(C)(=O)=O)C(=O)N1c1cccc(C(F)(F)F)c1 [Example 3, (4 S)-4-[4-Cyano-2-(methylsulfonyl)phenyl]-6-methyl-3-(methylsulfonyl)-2-oxo-1-[3-(trifluoromethyl)phenyl]-1,2,3,4-tetrahydropyrimidine-5-carbonitrile]
[1]; 2.5 mg/kg BW twice daily p.o.
  Wound closure (reepithelialization) in % of initial epidermal gap: 95.8%
[1]; 5 mg/kg BW twice daily p.o.
  Wound closure (reepithelialization) in % of initial epidermal gap: 93.9%
[1]; 10 mg/kg BW twice daily p.o.
  Wound closure (reepithelialization) in % of initial epidermal gap: 99.5%
[1]; 20 mg/kg BW twice daily p.o.
  Wound closure (reepithelialization) in % of initial epidermal gap: 100%
[1]; 2.5-20 mg/kg bid p.o., FIG. 1
  Visual wound healing, wound area reduction over time (in words): significant visual wound healing improving effects; also recorded: induced accelerated wound healing
[1]; d 12
  Reepithelialization vs. vehicle controls, histological (in words): reepithelialization was significantly further advanced
[2]
  Correction of the reepithelialization-impairing effect of NE (in words): almost entirely, potently and concentration-dependently be corrected; also recorded: potently and effectively able to block detrimental effects of NE
[2]; Homo sapiens, 16 h
  IC50: 57.4 nM
[2]; curve fit, 16 h
  Bottom: 90.41
  Span: −47.65
  Top: 42.75
[3]
  IC50: < 0.3 nM

## CC1=C(C#N)[C@@H](c2ccc(C#N)cc2S(C)(=O)=O)N(S(=O)(=O)C2CC2)C(=O)N1c1cccc(C(F)(F)F)c1 [Example 4, (4 S)-4-[4-Cyano-2-(methylsulfonyl)phenyl]-6-methyl-3-(cyclopropylsulfonyl)-2-oxo-1-[3-(trifluoromethyl)phenyl]-1,2,3,4-tetrahydropyrimidine-5-carbonitrile]
[3]
  IC50: < 0.3 nM

## CCS(=O)(=O)c1cc(C#N)ccc1[C@@H]1C(C#N)=C(C)N(c2cccc(C(F)(F)F)c2)C(=O)N1C [Example 6, (4 S)-4-[4-Cyano-2-(ethylsulfonyl)phenyl]-3,6-dimethyl-2-oxo-1-[3-(trifluoromethyl)phenyl]-1,2,3,4-tetrahydropyrimidine-5-carbonitrile]
[3]
  IC50: < 0.3 nM
